In patent US4476120A, “Thiolic derivatives of erythromycin having therapeutic activity, and pharmaceutical compositions containing them” (Sigma Tau Indistrie Farmaceutiche Riunites, p.A, priority 1982, dated 1984):
≈ marks a conversion by molar mass, not a printed value.

How the values were obtained:
[1] = system: Strept. haemolyticus SS 18; type: cell-based; conditions: Brain Heart Infusion, estolate and RV11-RV15 previously hydrolized, unit assumed
Cl. tetani SS 17 = type: cell-based; conditions: Brain Heart Infusion, estolate and RV11-RV15 previously hydrolized, unit assumed
Br. abortus SS 7 = type: cell-based; conditions: Brain Heart Infusion, estolate and RV11-RV15 previously hydrolized, unit assumed
Pr. vulgaris SS 10 = type: cell-based; conditions: Brain Heart Infusion, estolate and RV11-RV15 previously hydrolized, unit assumed
Citrobacter SS 09 = type: cell-based; conditions: Brain Heart Infusion, estolate and RV11-RV15 previously hydrolized, unit assumed
E. coli SS 07 = type: cell-based; conditions: Brain Heart Infusion, estolate and RV11-RV15 previously hydrolized, unit assumed
E. coli SS 04 = type: cell-based; conditions: Brain Heart Infusion, estolate and RV11-RV15 previously hydrolized, unit assumed
H. pertussis SS 03 = type: cell-based; conditions: Brain Heart Infusion, estolate and RV11-RV15 previously hydrolized, unit assumed
Staph. aureus SS 10 = type: cell-based; conditions: Brain Heart Infusion, estolate and RV11-RV15 previously hydrolized, unit assumed
Br. melitensis SS 19 = type: cell-based; conditions: unit assumed
N. gonorreae SS 27 = type: cell-based; conditions: Brain Heart Infusion, estolate and RV11-RV15 previously hydrolized, unit assumed
E. coli SS 05 = type: cell-based; conditions: Brain Heart Infusion, estolate and RV11-RV15 previously hydrolized, unit assumed
Citrobacter SS 05 = type: cell-based; conditions: Brain Heart Infusion, estolate and RV11-RV15 previously hydrolized, unit assumed
N. meningitidis SS 04 = type: cell-based; conditions: Brain Heart Infusion, estolate and RV11-RV15 previously hydrolized, unit assumed
S. heidelberg SS 18 = type: cell-based; conditions: Brain Heart Infusion, estolate and RV11-RV15 previously hydrolized, unit assumed
H. influentiae SS 02 = type: cell-based; conditions: Brain Heart Infusion, estolate and RV11-RV15 previously hydrolized, unit assumed
Strept. faecalis SS 19 = type: cell-based; conditions: Brain Heart Infusion, estolate and RV11-RV15 previously hydrolized, unit assumed
S. infantis SS 08 = type: cell-based; conditions: Brain Heart Infusion, estolate and RV11-RV15 previously hydrolized, unit assumed
Staph. aureus SS 07 [2] = experiment: Experimental infection induced by Staph. aureus SS 07; type: in vivo, Swiss white mice; conditions: Staph. aureus SS 07, mg/kg of erythromycin, survival after 7 days, 10080 min
Outline: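 Swiss mice of 20 g infected parenterally with lethal amounts of Staph. aureus SS 07 or D. pneumoniae SS 23. Antibiotics were given at infection and again 6 and 24 h later. ED50 was derived from survival at 7 days.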

Staph. aureus SS 09 = type: cell-based; conditions: Brain Heart Infusion, estolate and RV11-RV15 previously hydrolized, unit assumed
[3] = Mucolytic activity: obstruction of the bronchial tract after SO2 inhalation; type: in vivo, Sprague Dawley male rats; conditions: i.m., 250 mg/kg; SO2, 15 days
Acute toxicity = type: in vivo; conditions: mortality 10 days after treatment, mice
Procedure: The acute toxicity was assessed in Swiss white mice by oral and intravenous route. The LD50 values have been calculated by the methods of Probits, starting from the mortality recorded 10 days after the treatment.

Kl. pneumoniae SS 04 = type: cell-based; conditions: Brain Heart Infusion, estolate and RV11-RV15 previously hydrolized, unit assumed
From the text: (§1) In the following table I the MIC/ml values are indicated corresponding to the lowest concentration capable of inducing a complete inhibition of the bacterial development.

H. tubercolosis SS 03 = type: cell-based; conditions: Brain Heart Infusion, estolate and RV11-RV15 previously hydrolized, unit assumed
From the text: as §1

Staph. aureus SS 07 [4] = type: cell-based; conditions: Brain Heart Infusion, estolate and RV11-RV15 previously hydrolized, unit assumed
Staph. albus SS 03 = type: cell-based; conditions: Brain Heart Infusion, estolate and RV11-RV15 previously hydrolized, unit assumed
Kl. aerogenes SS 71 = type: cell-based; conditions: Brain Heart Infusion, estolate and RV11-RV15 previously hydrolized, unit assumed
B. anthranis SS 09 = type: cell-based; conditions: B. anthranis SS 09 (14 bis); Brain Heart Infusion; estolate and RV11-RV15 previously hydrolized; unit assumed
Ps. aeruginosa SS 10 = type: cell-based; conditions: Brain Heart Infusion, estolate and RV11-RV15 previously hydrolized, unit assumed
B. anthranis SS 08 = type: cell-based; conditions: Brain Heart Infusion, estolate and RV11-RV15 previously hydrolized, unit assumed
[5] = system: Strept. haemolyticus SS 17; type: cell-based; conditions: Brain Heart Infusion, estolate and RV11-RV15 previously hydrolized, unit assumed
Sr. marcescens SS 03 = type: cell-based; conditions: Brain Heart Infusion, estolate and RV11-RV15 previously hydrolized, unit assumed
Staph. albus SS 04 = type: cell-based; conditions: Brain Heart Infusion, estolate and RV11-RV15 previously hydrolized, unit assumed
Pr. mirabilis SS 09 = type: cell-based; conditions: Brain Heart Infusion, estolate and RV11-RV15 previously hydrolized, unit assumed
[6] = Histological examination of bronchi after SO2 inhalation; type: in vivo, Sprague Dawley male rats; conditions: i.m., 250 mg/kg
E. aerogenes SS 011 = type: cell-based; conditions: Brain Heart Infusion, estolate and RV11-RV15 previously hydrolized, unit assumed
E. coli SS 06 = type: cell-based; conditions: Brain Heart Infusion, estolate and RV11-RV15 previously hydrolized, unit assumed
D. pneumoniae SS 23 = type: cell-based; conditions: Brain Heart Infusion, estolate and RV11-RV15 previously hydrolized, unit assumed
B. subtilis ATCC 6633 = type: cell-based; conditions: Brain Heart Infusion, estolate and RV11-RV15 previously hydrolized, unit assumed
C. diphtheriae SS 19 = type: cell-based; conditions: Brain Heart Infusion, estolate and RV11-RV15 previously hydrolized, unit assumed
B. subtilis SS 127 = type: cell-based; conditions: Brain Heart Infusion, estolate and RV11-RV15 previously hydrolized, unit assumed
C. albicans SS 04 = type: cell-based; conditions: Brain Heart Infusion, estolate and RV11-RV15 previously hydrolized, unit assumed
Staph. aureus SS 08 = type: cell-based; conditions: Brain Heart Infusion, estolate and RV11-RV15 previously hydrolized, unit assumed

CC[C@H]1OC(=O)[C@H](C)[C@@H](O[C@H]2C[C@@](C)(OC)[C@@H](O)[C@H](C)O2)[C@H](C)[C@@H](O[C@@H]2O[C@H](C)C[C@H](N(C)C)[C@H]2O)[C@](C)(O)C[C@@H](C)C(=O)[C@H](C)[C@@H](O)[C@]1(C)O [RV04, erythromycin-S-carboxymethylcysteinate]
MIC [1]: 1.5 µg/mL (≈ 2.04 µM) | MIC (Cl. tetani SS 17): 0.2 µg/mL (≈ 0.273 µM) | MIC (Br. abortus SS 7): 6 µg/mL (≈ 8.18 µM) | MIC (Pr. vulgaris SS 10): > 200 µg/mL | MIC (Citrobacter SS 09): > 200 µg/mL | MIC (E. coli SS 07): 25 µg/mL (≈ 34.1 µM) | MIC (E. coli SS 04): 100 µg/mL (≈ 136 µM) | MIC (H. pertussis SS 03): 0.8 µg/mL (≈ 1.09 µM) | MIC (Staph. aureus SS 10): 0.2 µg/mL (≈ 0.273 µM) | MIC (Br. melitensis SS 19): 6 µg/mL (≈ 8.18 µM) | MIC (N. gonorreae SS 27): 0.8 µg/mL (≈ 1.09 µM) | MIC (E. coli SS 05): 50 µg/mL (≈ 68.1 µM) | MIC (Citrobacter SS 05): > 200 µg/mL | MIC (N. meningitidis SS 04): 1.5 µg/mL (≈ 2.04 µM) | MIC (S. heidelberg SS 18): 100 µg/mL (≈ 136 µM) | MIC (H. influentiae SS 02): 1.5 µg/mL (≈ 2.04 µM) | MIC (Strept. faecalis SS 19): 0.05 µg/mL (≈ 0.0681 µM) | MIC (S. infantis SS 08): 100 µg/mL (≈ 136 µM) | ED50 (reliability limits) (Staph. aureus SS 07 [2]; os): 2.31 (2.55-2.09) mg/kg | ED50 (reliability limits) (Staph. aureus SS 07 [2]; s.c.): 1.00 (1.24-0.80) mg/kg | MIC (Staph. aureus SS 09): 0.025 µg/mL (≈ 0.0341 µM) | Partial obstruction (% incidence) [3]: 13.33% | Total obstruction, compact plug (% incidence) [3]: 20% | Total obstruction, nodular mass (% incidence) [3]: 13.33% | Total obstruction, pimply mass (% incidence) [3]: 6.66% | LD50 (reliability limits) (Acute toxicity; i.v., 14400 min): 439.46 (545.44-354.08) mg.kg | LD50 (reliability limits) (Acute toxicity; os): > 3000 mg·kg | MIC (Kl. pneumoniae SS 04): 100 µg/mL (≈ 136 µM) | MIC (H. tubercolosis SS 03): 50 µg/mL (≈ 68.1 µM) | MIC (Staph. aureus SS 07 [4]): 0.025 µg/mL (≈ 0.0341 µM) | MIC (Staph. albus SS 03): 0.1 µg/mL (≈ 0.136 µM) | MIC (Kl. aerogenes SS 71): 50 µg/mL (≈ 68.1 µM) | MIC (B. anthranis SS 09): 0.2 µg/mL (≈ 0.273 µM) | MIC (Ps. aeruginosa SS 10): 100 µg/mL (≈ 136 µM) | MIC (B. anthranis SS 08): 0.4 µg/mL (≈ 0.545 µM) | MIC [5]: 1.5 µg/mL (≈ 2.04 µM) | MIC (Sr. marcescens SS 03): > 200 µg/mL | MIC (Staph. albus SS 04): 0.05 µg/mL (≈ 0.0681 µM) | MIC (Pr. mirabilis SS 09): 200 µg/mL (≈ 273 µM) | histological appearance of non obstructed bronchi ([6]; free non obstructed): practically normal appearance | histological appearance of obstructed bronchial tract ([6]; obstructed): an appearance like that of the control animals | MIC (E. aerogenes SS 011): 50 µg/mL (≈ 68.1 µM) | MIC (E. coli SS 06): 100 µg/mL (≈ 136 µM) | MIC (D. pneumoniae SS 23): 0.05 µg/mL (≈ 0.0681 µM) | MIC (B. subtilis ATCC 6633): 0.025 µg/mL (≈ 0.0341 µM) | MIC (C. diphtheriae SS 19): 0.205 µg/mL (≈ 0.279 µM) | MIC (B. subtilis SS 127): 0.025 µg/mL (≈ 0.0341 µM) | MIC (C. albicans SS 04): 100 µg/mL (≈ 136 µM) | MIC (Staph. aureus SS 08): 0.05 µg/mL (≈ 0.0681 µM)
